Experimental findings from article PMC6274048, “Chemical Constituents of Malaysian U. cordata var. ferruginea and Their in Vitro α-Glucosidase Inhibitory Activities” (Molecules, 2016) are described below.

Molecules are shown by their SMILES. Read-outs that look alike come from different tables or passages of the source.

In the experiment the target is α-glucosidase enzyme (type 1 from Baker's yeast) (Saccharomyces cerevisiae, UniProt P53341). The experiment can be described thus: α-Glucosidase inhibitory assay (p-nitrophenyl-α-D-glucopyranoside substrate, absorbance at 405 nm). The class given is biochemical. Particulars: for inhibition at 1000 µg/mL: Concentration: 1 mg/mL, Means ± SD, n = 3; for IC50: α-glucosidase inhibition. As to the method: The method of α-glucosidase inhibitory assay was adopted from Ahmad et al. with minor modification. The plant samples (extract/fraction/compound) were prepared in 5% DMSO at a concentration of 1000 μg/mL. A series of dilutions for each sample were prepared to give concentrations of 1000, 500, 250, 125, 62.5 and 31.25 μg/mL. Then, about 10 μL of sample, 20 μL of α-glucosidase enzyme solution (type 1 from Baker’s yeast), phosphate buffer saline (40 μL at pH 6.5) and deionized water (20 μL) were mixed in a 96-well plate. The mixture was incubated at 37 °C. After 10 min, 10 μL of 20 mM p-nitrophenyl-α-D-glucopyranoside solution was added into the mixture and absorbance at time 0 min was measured by the spectrophotometer (λ = 405 nm). Then, the reaction mixture was incubated at 37 °C for 30 min and the absorbance was measured. […] Experiments were performed in triplicates with three independent experiments. The percentage inhibitory activity was calculated using the following equation: (1) Inhibition (%)=(A30 min–A0 min) control – (A30 min – A0 min) sample × 100/(A30 min–A0 min) control where A is the absorbance of mixture measured at 405 nm.
Sequence of α-glucosidase enzyme (type 1 from Baker's yeast) (P53341 whole entry): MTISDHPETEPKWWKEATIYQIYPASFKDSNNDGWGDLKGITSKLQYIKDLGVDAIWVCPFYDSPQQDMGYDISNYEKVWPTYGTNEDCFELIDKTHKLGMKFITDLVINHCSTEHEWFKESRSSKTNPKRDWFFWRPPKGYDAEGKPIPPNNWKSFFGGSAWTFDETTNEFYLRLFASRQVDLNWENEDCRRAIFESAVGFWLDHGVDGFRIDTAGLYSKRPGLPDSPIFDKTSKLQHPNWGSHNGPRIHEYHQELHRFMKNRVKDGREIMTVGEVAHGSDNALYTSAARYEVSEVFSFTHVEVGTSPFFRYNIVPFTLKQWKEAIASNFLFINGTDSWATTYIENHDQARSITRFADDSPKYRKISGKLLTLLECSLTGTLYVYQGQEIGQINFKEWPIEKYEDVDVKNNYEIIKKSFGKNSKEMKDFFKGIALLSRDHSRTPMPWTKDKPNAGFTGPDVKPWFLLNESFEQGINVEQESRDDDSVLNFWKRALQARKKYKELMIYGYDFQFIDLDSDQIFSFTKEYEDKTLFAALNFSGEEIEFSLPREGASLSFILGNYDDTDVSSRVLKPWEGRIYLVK

A word on the inhibition: it is the percentage by which the read-out fell short of the control. Consider `COc1cc2ccc(=O)oc2cc1O` [Scopoletin], for which at 1000 µg/mL the inhibition was 34.5 ± 0.4%. Same read-out and setting: under `C[C@H]1O[C@H](O[C@H]2[C@H](O)[C@@H](O)[C@@H](O[C@H]3[C@H](O)[C@@H](O)C(O)O[C@@H]3CO)O[C@@H]2CO)[C@H](O)[C@@H](O)[C@@H]1N[C@H]1C=C(CO)[C@@H](O)[C@H](O)[C@H]1O` (stereo partly shown) [Acarbose, reference compound] stands 90.9 ± 2.7%; under `O=c1c(O)c(-c2ccc(O)c(O)c2)oc2cc(O)cc(O)c12` [Quercetin], 84.5 ± 0.6%. Consider `O=C(O)c1ccc(O)cc1O` [2,4-DHBA, 2,4-Dihydroxybenzoic acid], for which testing at 1000 µg/mL gave an inhibition of 78.8 ± 0.4%. Also, the IC50 (dilution series 1000-31.25 μg/mL, read-out: IC50 (μg/mL) (converted)) was 3.56 mM. Further, the IC50 (same IC50 in molar units, read-out: IC50) was 3.56 mM. The compound `COC(=O)C1=CO[C@@H](O[C@@H]2O[C@H](CO)[C@@H](O)[C@H](O)[C@H]2O)[C@@H]2[C@@H](C)[C@@H](O)C[C@H]12` [Loganin] returned an inhibition at 1000 µg/mL of 44.9 ± 0.7%.
